PubChem BioAssay AID720585 (Broad Institute, 2013)
Calls of active or inactive are those of the source.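 Rule for the calls: active = fitted curve falling to -50% or lower, with AC50 no more than twice the sample's top valid dose; inactive = the rest, including changes in the wrong direction.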

Test system: not listed separately
Test: A549 lung cell cytotoxicity, dose response, cytotoxicity control, CellTiter-Glo luminescence, dry powder samples (AID 720585)
Conditions: A549 viability, CellTiter-Glo ATP luminescence, 72 h; at 26 µM (top of the series)
With `O=C(Nc1cccnc1)c1cnn2c(C(F)F)cc(C3CC3)nc12` the activity change, negative = cytotoxicity was -2.75% (inactive). In the case of `O=C(Nc1cccc(F)c1)N1CCN(c2ccccc2)CC1`, the activity change, negative = cytotoxicity was 5.56% (inactive). For `Cc1ccc(/C=C(\CCC(=O)O)c2nc3ccccc3s2)cc1`, the activity change, negative = cytotoxicity was -2.14% (inactive). In the case of `O=C(Nc1ccncc1)c1cc2nc(C3CC3)cc(C(F)F)n2n1`, the activity change, negative = cytotoxicity was 2.81% (inactive). For `O=C(c1ccc2c(c1)OCO2)N1CCN(Cc2ccccc2)CC1`, the activity change, negative = cytotoxicity was 9.39% (inactive). In the case of `Cc1ccc(/C=C(\CC(=O)O)c2nc3ccccc3s2)cc1[N+](=O)[O-]`, the activity change, negative = cytotoxicity was 7.43% (inactive). In the case of `COc1ccc(N2CCN(C(=O)c3ccc4c(c3)OCO4)CC2)cc1`, the activity change, negative = cytotoxicity was -3.29% (inactive). With `Cc1ccc(/C=C(\CCC(=O)O)c2nc3ccccc3s2)cc1[N+](=O)[O-]` the activity change, negative = cytotoxicity was -3.79% (inactive). For `O=C(c1ccc2c(c1)OCO2)N1CCN(c2ccc(Cl)cc2)CC1`, the activity change, negative = cytotoxicity was -6.96% (inactive). In the case of `Cc1ccc(-c2cc(C(F)(F)F)n3nc(C(=O)Nc4cccnc4)cc3n2)cc1`, the activity change, negative = cytotoxicity was -7.78% (inactive). In the case of `Cc1nc2ccc(NC(=O)N3CCN(c4ccccc4)CC3)cc2s1`, the activity change, negative = cytotoxicity was 0.35% (inactive). For `O=C(c1ccc2c(c1)OCO2)N1CCN(c2ccccc2)CC1`, the activity change, negative = cytotoxicity was -3.52% (inactive). In the case of `CCc1ccc(C(=O)N2CCN(Cc3ccc4c(c3)OCO4)CC2)cc1`, the activity change, negative = cytotoxicity was -0.901% (inactive). For `O=C(Nc1cccnc1)c1cnn2c(C(F)(F)F)cc(-c3ccccc3)nc12`, the activity change, negative = cytotoxicity was -2.52% (inactive). In the case of `CC(=O)c1ccc(N2CCN(C(=O)c3ccc(F)cc3)CC2)cc1`, the activity change, negative = cytotoxicity was -0.22% (inactive). For `Cc1ccc(NC(=O)N2CCN(c3ccccc3)CC2)cc1`, the activity change, negative = cytotoxicity was -5.15% (inactive). In the case of `O=C(COc1ccc2ccc(=O)oc2c1)N1CCN(c2ccc(F)cc2)CC1`, the activity change, negative = cytotoxicity was -15.6% (inactive). For `O=C(Nc1ccc2snnc2c1)N1CCN(c2ccccc2)CC1`, the activity change, negative = cytotoxicity was -13.4% (inactive). With `O=C(O)CC/C(=C\c1ccccc1[N+](=O)[O-])c1nc2ccccc2s1` the activity change, negative = cytotoxicity was -7.05% (inactive). For `CC(=O)c1ccc(N2CCN(C(=O)c3ccc(Br)cc3)CC2)c(F)c1`, the activity change, negative = cytotoxicity was -2.87% (inactive). In the case of `CC(=O)c1ccc(N2CCN(C(=O)c3ccc(C)cc3)CC2)cc1`, the activity change, negative = cytotoxicity was -8.81% (inactive). For `O=C(Nc1ccc2[nH]ccc2c1)N1CCN(c2ccccc2)CC1`, the activity change, negative = cytotoxicity was -0.377% (inactive). With `O=C(Nc1ccc(F)cc1)N1CCN(c2ccccc2)CC1` the activity change, negative = cytotoxicity was -4.84% (inactive). With `O=C(Nc1ccc2snnc2c1)N1CCOCC1` the activity change, negative = cytotoxicity was 9.86% (inactive). In the case of `CC(=O)c1ccc(N2CCN(C(=O)c3ccc4ncsc4c3)CC2)cc1`, the activity change, negative = cytotoxicity was 2.15% (inactive). With `CC(C)(C)c1ccc(C(=O)N2CCN(c3ccc4c(c3)OCO4)CC2)cc1` the activity change, negative = cytotoxicity was -3.25% (inactive). In the case of `O=C(O)CC/C(=C\c1ccc([N+](=O)[O-])cc1)c1nc2ccccc2s1`, the activity change, negative = cytotoxicity was 5.24% (inactive). With `O=C(Nc1ccc(Cl)cc1)c1cc2nc(C3CC3)cc(C(F)(F)F)n2n1` the activity change, negative = cytotoxicity was 12.6% (inactive). For `Cc1nc2cc(NC(=O)N3CCN(c4ccccc4)CC3)ccc2o1`, the activity change, negative = cytotoxicity was -4.28% (inactive). For `CC(=O)c1ccc(N2CCN(C(=O)c3cccc(F)c3)CC2)cc1`, the activity change, negative = cytotoxicity was -1.71% (inactive). With `COc1ccc(C(=O)N2CCN(c3ccc(C(C)=O)cc3)CC2)cc1` the activity change, negative = cytotoxicity was 13.7% (inactive). For `O=C(Nc1ccccc1)N1CCN(c2ccccc2)CC1`, the activity change, negative = cytotoxicity was -0.224% (inactive). In the case of `CC(=O)c1ccc(N2CCN(C(=O)c3ccc4c(c3)OCO4)CC2)cc1`, the activity change, negative = cytotoxicity was -12.8% (inactive). For `COc1cccc(NC(=O)CCC2CCN(C(=O)c3ccc(C(C)=O)s3)CC2)c1`, the activity change, negative = cytotoxicity was -3.35% (inactive). With `O=C(Nc1cccc(Cl)c1)N1CCN(c2ccccc2)CC1` the activity change, negative = cytotoxicity was -1.38% (inactive). For `COc1cccc(NC(=O)N2CCN(c3ccccc3)CC2)c1`, the activity change, negative = cytotoxicity was 8.71% (inactive). In the case of `CC(=O)c1ccc(N2CCN(C(=O)c3cccc(Cl)c3)CC2)cc1`, the activity change, negative = cytotoxicity was 4.97% (inactive). For `CCOC(=O)N1CCN(C(=O)Nc2ccc3snnc3c2)CC1`, the activity change, negative = cytotoxicity was -11% (inactive). In the case of `O=C(Nc1ccc2snnc2c1)N1CCCCC1`, the activity change, negative = cytotoxicity was -9.31% (inactive). In the case of `Cc1cccc(/C=C(\CCC(=O)O)c2nc3ccccc3s2)c1`, the activity change, negative = cytotoxicity was -7.62% (inactive). For `COc1ccc(-c2cc(C(F)(F)F)n3nc(C(=O)Nc4cccnc4)cc3n2)cc1`, the activity change, negative = cytotoxicity was 5.08% (inactive). With `CCN(CC)c1ccc2cc(C(=O)c3cccs3)c(=O)oc2c1` the activity change, negative = cytotoxicity was 7.58% (inactive). For `COc1cc(/C=C/C(=O)Nc2cccnc2)cc(OC)c1OC`, the activity change, negative = cytotoxicity was 11.1% (inactive). For `COc1cccc(C(=O)N2CCN(c3ccc(C(C)=O)cc3)CC2)c1`, the activity change, negative = cytotoxicity was -3.71% (inactive). In the case of `COc1ccc(NC(=O)N2CCN(c3ccccc3)CC2)cc1`, the activity change, negative = cytotoxicity was -3.72% (inactive). For `CC(=O)c1ccc(N2CCN(C(=O)c3ccc4c(c3)OCCO4)CC2)cc1`, the activity change, negative = cytotoxicity was -10.1% (inactive). With `CC(=O)c1ccc(N2CCN(C(=O)c3ccc(Cl)cc3)CC2)cc1` the activity change, negative = cytotoxicity was 3.76% (inactive). In the case of `CC(=O)c1ccc(N2CCN(C(=O)c3cccnc3)CC2)cc1`, the activity change, negative = cytotoxicity was 0.559% (inactive). For `COC(=O)c1c(C(=O)OC)c(-c2cccc(F)c2)n2c1CS(=O)C2` (centres undefined), the activity change, negative = cytotoxicity was 2.89% (inactive). In the case of `Cc1cc(C)n2nc(C(=O)Nc3cccnc3)cc2n1`, the activity change, negative = cytotoxicity was 0.879% (inactive). In the case of `O=C(Nc1cccnc1)N1CCN(c2ccccc2)CC1`, the activity change, negative = cytotoxicity was -2.28% (inactive). For `O=C(Nc1cccnc1)c1cc2nc(-c3cccs3)cc(C(F)(F)F)n2n1`, the activity change, negative = cytotoxicity was -3.55% (inactive). For `CC(=O)c1ccc(N2CCN(Cc3ccc4c(c3)OCO4)CC2)cc1`, the activity change, negative = cytotoxicity was -4.27% (inactive). For `O=C(c1ccc2c(c1)OCO2)N1CCN(c2ccc(F)cc2)CC1`, the activity change, negative = cytotoxicity was -0.413% (inactive).

Test system: A549 viability, CellTiter-Glo ATP luminescence, 72 h
Test: as above
Conditions: not given
In the case of `O=C(Nc1ccc(Cl)c(-c2nc3ccccc3[nH]2)c1)c1cccnc1`, the AC50 was > 26 µM (inactive). For `Cc1cc(C)n2nc(C(=O)Nc3cccnc3)nc2n1`, the AC50 was > 26 µM (inactive). With `CCc1ccc(N2CCN(C(=O)c3ccc4c(c3)OCO4)CC2)cc1` the AC50 was > 26 µM (inactive). For `Cc1ccccc1/C=C(\CCC(=O)O)c1nc2ccccc2s1`, the AC50 was > 26 µM (inactive). In the case of `CC(=O)c1ccc(N2CCN(C(=O)c3ccccc3)CC2)cc1`, the AC50 was > 26 µM (inactive).
